Experimental data published in patent US20250127874A1, “CMV EPITOPES” (The Council of the Queensland Institute of Medical Research, priority 2016, published 2025).

System: CD8+ T cells
Assay: PBMC from HSCT recipients stimulated with HLA-matched peptide epitopes, cultured two weeks with IL-2, IFN-γ production by CD8+ T cells on recall
Excerpt: To assess the impact of epitope variation and co-infection on IE-1 specific T cell immunity, PBMC samples from HSCT recipients showing evidence of viral reactivation were stimulated with all potentially HLA-matched variant peptide epitopes then cultured in vitro for two weeks in the presence of IL-2. PBMC from nine HSCT recipients showing immune reconstitution with no evidence of CMV reactivation were also stimulated with HLA-matched variant peptide epitopes (Table 2). As a control, PBMC were stimulated with at least two conserved HLA matched epitopes.

Row | Sequence | T cell response against epitope (recipient 17 (HLA-B8), longitudinal analysis during and after viral reactivation) | T cell response against epitope (HLA B44-positive HSCT recipients with reactivation (7))
1 | VTEHDTTLY | absence of a detectable response | 
2 | EDAIAAYTL (Cytomegalovirus) |  | failed to induce a significant T cell response in any recipient
